Paper PMC9635925, “Biological screening of a unique drug library targeting MRGPRX2” (Frontiers in Immunology, 2022)
Numbering of substitutions follows the chain as printed. Counter-ions that a name gives are not always drawn.

Assays:
MRGPRX2 N62S = target: T1, MRGPRX2 N62S (Homo sapiens, UniProt Q96LB1, N62S); assay: Calcium response dose-response curves in HEK293-Gα15 cells expressing MRGPRX2 N62S; type: cell-based; settings: P=0.013, unpaired t-test
T1 construct: expressed in transfected cells
T1 sequence (Q96LB1 1-330 N62S): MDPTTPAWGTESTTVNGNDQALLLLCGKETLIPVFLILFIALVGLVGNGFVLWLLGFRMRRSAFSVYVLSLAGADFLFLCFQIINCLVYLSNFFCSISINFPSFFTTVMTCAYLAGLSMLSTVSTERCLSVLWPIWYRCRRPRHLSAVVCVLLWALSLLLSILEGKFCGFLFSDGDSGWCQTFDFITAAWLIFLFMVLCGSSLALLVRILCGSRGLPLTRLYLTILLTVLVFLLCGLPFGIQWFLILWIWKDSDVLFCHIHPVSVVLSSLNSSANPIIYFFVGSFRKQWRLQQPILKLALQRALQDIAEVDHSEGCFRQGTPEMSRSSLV

[1] = target: T2, MRGPRX2-WT (wild-type MRGPRX2 receptor) (Homo sapiens, UniProt Q96LB1); assay: Primary HTS, Ca2+ mobilization (fluorescence ratio, B-score) in HEK293-Gα15 cells stably expressing wild-type MRGPRX2; type: cell-based; settings: for B-scores (WT): 10 μM compound
T2 construct: expressed in transfected cells
T2 sequence (Q96LB1 1-330): T1 sequence (Q96LB1 1-330 N62S) with S62N

[2] = target: T3, MRGPRX2-MUT (MRGPRX2 N62S mutation) (Homo sapiens, UniProt Q96LB1, N62S); assay: Primary HTS, Ca2+ mobilization (fluorescence ratio, B-score) in HEK293-Gα15 cells stably expressing the MRGPRX2 N62S mutation; type: cell-based; settings: for B-scores (MUT): 10 μM compound, MRGPRX2-MUT (N62S) cells
T3 construct: expressed in transfected cells
T3 sequence (Q96LB1 1-330 N62S): T1 sequence (Q96LB1 1-330 N62S)

MRGPRX2-WT = target: T4, MRGPRX2-WT (Homo sapiens, UniProt Q96LB1); assay: Calcium response dose-response curves in HEK293-Gα15 cells expressing MRGPRX2-WT; type: cell-based
T4 construct: expressed in transfected cells
T4 sequence (Q96LB1 1-330): T1 sequence (Q96LB1 1-330 N62S) with S62N

[3] = test system: HEK293-Gα15 cells without MRGPRX2; assay: Calcium release in HEK293-Gα15 cells without MRGPRX2 (negative control screening); settings: compared to MRGPRX2-WT or MRGPRX2-N62S cells, data not shown
MRGPRX2 = settings: weak agonist; cited from earlier work
[4] = test system: MRGPRX2-deficient LAD2 cells; assay: β-hexosaminidase release in MRGPRX2-deficient LAD2 cells (CRISPR/Cas9); type: cell-based, human; settings: two-way ANOVA, P< 0.0001
Procedure: (§1) The human mast cell line LAD2 (Laboratory of Allergic Diseases-2) was obtained from Dean Metcalfe, MD (National Institute of Allergy and Infectious Diseases, National Institutes of Health, Bethesda, MD). […] We included two negative and two positive controls for the validation experiments in LAD2 cells. […] Additionally, vehicle control (without any drugs) was also included as the negative control. Drugs were dissolved in PBS (vehicle) and six concentrations were tested for each drug; the known MRGPRX2 agonist C48/80 (10 μg/mL) and Tween 20 (1%), which is a known mast cell activator via MRGPRX2 independent mechanism, were used as positive controls. Two-way ANOVA with the Sidak multiple comparisons test was used for statistical analysis (n=6).
(§2) We further investigated whether these newly discovered candidate drugs can serve as agonists for MRGPRX2-dependent activation of MCs.

LAD2 cells = assay: β-hexosaminidase release (degranulation) in human mast cell line LAD2; type: cell-based; settings: at 500 μM
Procedure: as §1, §2

**Q.** Which “EC50 values comparing MRGPRX2-MUT to MRGPRX2-WT cells” value (MRGPRX2 N62S) does the source give for COc1cccc2c1C(=O)c1c(O)c3c(c(O)c1C2=O)C[C@@](O)(C(C)=O)C[C@@H]3O[C@H]1C[C@H](N)[C@H](O)[C@H](C)O1 [Daunorubicin Hydrochloride] here?
**A.** Its value is “demonstrated the LOF property”.

**Q.** And the “B-scores (WT)” value ([1]; Supplementary Table 2)?
**A.** The value was 2.95.

**Q.** What about the “B-scores (MUT)” value ([2]; Supplementary Table 2) of the same compound?
**A.** The value was 15.19.

**Q.** And the “Change of B-scores (%)” value ([2]; MRGPRX2-MUT versus MRGPRX2-WT cells, 10 μM, Supplementary Table 2)?
**A.** The value was 414.49%.

**Q.** With COc1cccc2c1C(=O)c1c(O)c3c(c(O)c1C2=O)C[C@@](O)(C(=O)CO)C[C@@H]3O[C@H]1C[C@H](N)[C@H](O)[C@H](C)O1 [Doxorubicin Hydrochloride] as the compound, how does the EC50 (MRGPRX2-WT) read?
**A.** Its EC50 is 131 nM.

**Q.** For CSCC[C@H](NC(=O)[C@H](CC(C)C)NC(=O)CNC(=O)[C@H](Cc1ccccc1)NC(=O)[C@H](Cc1ccccc1)NC(=O)[C@H](CCC(N)=O)NC(=O)[C@H](CCC(N)=O)NC(=O)[C@@H]1CCCN1C(=O)[C@H](CCCCN)NC(=O)[C@@H]1CCCN1C(=O)[C@@H](N)CCCNC(=N)N)C(N)=O [SP, substance P], which “calcium response in empty HEK293-Gα15 cells” value [3] is on record?
**A.** Its value is “no increase in calcium response was detected”.

**Q.** With CN[C@H](CC(C)C)C(=O)N[C@H]1C(=O)N[C@@H](CC(N)=O)C(=O)N[C@H]2C(=O)N[C@H]3C(=O)N[C@H](C(=O)N[C@H](C(=O)O)c4cc(O)cc(O)c4-c4cc3ccc4O)[C@H](O)c3ccc(c(Cl)c3)Oc3cc2cc(c3O[C@@H]2O[C@H](CO)[C@@H](O)[C@H](O)[C@H]2O[C@H]2C[C@](C)(N)[C@H](O)[C@H](C)O2)Oc2ccc(cc2Cl)[C@H]1O [vancomycin] as the compound, how does the “calculated EC50” value (MRGPRX2) read?
**A.** The value was 60 µg/mL.

**Q.** What about the B-score value ([1]; 10 μM) of the same compound?
**A.** Its B-score value is 16.36.

**Q.** For Bacitracin A, which “B-scores (WT)” value ([1]; Supplementary Table 1) is on record?
**A.** Its value is 20.22.

**Q.** What about the “B-scores (WT)” value ([1]; Table 1) of the same compound?
**A.** The value was 20.22.

**Q.** And the “B-scores (MUT)” value ([2]; Table 1)?
**A.** Its value is -0.17.

**Q.** And the “degranulation (β-hexosaminidase release) in LAD2 cells lacking MRGPRX2” value [4]?
**A.** Its value is “decreased to the level of vehicle controls”.

**Q.** And the β-hexosaminidase release (LAD2 cells)?
**A.** Its β-hexosaminidase release is 61.94%.
